Assay results taken from patent US5631279A, “Perhydroisoindole derivatives, preparation thereof and pharmaceutical compositions containing same” (Rhone-Poulenc Rorer, S.A., priority 1993, dated 1997).

System: rabbit pulmonary artery
Assay: Antagonism of rabbit pulmonary artery contractions induced by [Lys5 MeLeu9 Nle10]NKA(4-10)
Parameters: species or system rabbit (male, New Zealand albino)
Settings: product incubated for 2 hours; [Lys5 MeLeu9 Nle10]NKA(4-10) as agonist; Krebs solution 37° C.
Method: The in vitro antagonistic activity of the products is determined with respect to rabbit pulmonary artery contractions induced by [Lys^5 MeLeu^9 Nle^10 ]NKA(4-10) according to the technique described by D. Regoli et al., Trends Pharmacol. Sci, 2, 290-295 (1988) and P. D'Orleans-Juste et al., Eur. J. Pharmacol., 125, 37-44 (1985). The pulmonary artery of the rabbit (male, New Zealand albino) is withdrawn; the endothelium is destroyed by introduction into the arterial lumen of a glass rod coated with filter paper, and the artery is then cut into rings and incubated in an isolated-organ tank containing an oxygenated Krebs solution (95% O2; 5% CO2) at 37° C. at a tension of 1 g. After determining the agonistic activity of [Lys^5 MeLeu9Nle^10 ]NKA(4-10) (contractile effect), the product to be studied is incubated for 2 hours in the isolated-organ tank before a further addition of [Lys^5 MeLeu^9 Nle^10 ]NKA(4-10). The percentage inhibition obtained is calculated. The antagonistic activity of a product is expressed in terms of IC^50.
In the above technique, the products studied display an antagonism to rabbit pulmonary artery contractions at the following concentration: […]

COc1ccccc1[C@@]1(O)[C@H](O)CC(c2ccccc2)(c2ccccc2)[C@@H]2CN(C(=O)Cc3c[nH]c4ccccc34)C[C@@H]21 [Example 1]
IC50: 215 nM
